Residues, ends and D or L forms follow the SMILES beside them. *: point of attachment. Cbz = O=C(OCc1ccccc1)*; NHPh = c1ccc(N*)cc1; OtBu = CC(C)(C)O*
Experiments:
C57BL/6 mice = experiment: Thermal hypersensitivity induced by intrathecal AAV2-FGF13-GFP (Hargreaves); assay type: in vivo, mouse
Description: Next, the in vivo PW164 strategy was applied to test ZL192 activity in mice that received i.t. injection (L4-L6) of either AAV2-shCTRL or AAV2-shFGF13 viral particles (10 μL; Figure 6B).
Experiments were performed on 6- to 12-week-old male C57BL/6 mice (The Jackson Laboratory, Bar Harbor, ME) housed in the AAALAC-accredited facility at the University of Texas Medical Branch. Mice were group-housed with up to 5 mice per cage on a 12-to-12-hour light–dark cycle and had access to water and food ad libitum. All protocols were approved by the Institutional Animal Care and Use Committee (IACUC) at the University of Texas Medical Branch and in accordance with the National Institutes of Health (NIH) guidelines.
PW164 and ZL192 were dissolved in DMSO and saline in a ratio of 1:10. 0.1% capsaicin (10% ethanol, 10% Tween-20 in saline; Sigma-Aldrich). All the compounds were injected at the center of the hind paw. The control group received a DMSO-saline mixture. 0.1% capsaicin was injected at the center of the hind paw and then PW164 (0.07 mg/ml) or DMSO was intradermally administered at the site of capsaicin injection Capsaicin was prepared from 1% (wt/vol) capsaicin stock solution dissolved in 100% ethanol, and 0.1% of diluted stock was made using tween-80 and saline solution at a 1:1:8 ratio. Bupivacaine was prepared from a 1:2 dilution with sterile 0.9% saline and locally injected in the center of the paw at 7 mg/ml.
AAV2 viral particles packaged by the University of North Carolina Gene Therapy Core Facility (viral titer ranging […]
Before intrathecal injections in the lumbar region, mice were maintained in an anesthetizing box with 2% isoflurane to induce unconsciousness. […]
Mechanical sensitivity was assessed using von Frey filaments (VFF 0.1g and 1.0 g force) in mice that were either naïve or received intraplantar ([…].) injection of capsaicin. […]

[1] = target: T1, FGF13/Nav1.7M1830A complex (Homo sapiens, UniProt Q15858+Q92913, M1830A); experiment: LCA, CLuc-FGF13/CD4-Nav1.7M1830A-NLuc; assay type: cell-based; details: ZL192 50 μM
T1 construct: Full-length FGF13-1b (aa 1-192) was subcloned into appropriate plasmids; Nav1.7 residues 1780-1977; expressed in transfected cells; host or cells: HEK293 (inferred; the LCA paragraph only says 'cells')
Excerpt: The respective gene ID numbers used in this study are as follows: NM_033642 (human, FGF13-1b) and NM_002977 (human SCN9A). Full-length FGF13-1b (aa 1-192) was subcloned into appropriate plasmids for use in this investigation, unless otherwise noted. For consistency with AlphaFold modeling presented, numbering of point mutations to FGF13-1b are based on the longest FGF13 isoform (FGF13-1a, NM_004114.2). CLuc-FGF13, […]
and constructs expressing the CLuc or the NLuc fragments of Firefly ( Photinus pyralis) luciferase (24) respectively were engineered, mutated (CLuc-FGF13R110A) and sequenced at the Molecular Genomics Core (University of Texas Medical Branch). […]
Twenty-four hours post transfection, cells were trypsinized using TrypLE (Gibco; cat # 12604013), centrifuged at 1750 rpm for 5 min, triturated in medium, and seeded into white clear-bottom 96-well CELLSTAR µClear® plates (Greiner Bio -One; cat # 655073 ) at ~0.8 x 10^5 cells per well in 200 µl of medium. […] The bioluminescence reaction was initiated by injection of 100 μl of D -luciferin substrate (1.5 mg/ml dissolved in PBS) using a Synergy H4 multimode microplate reader (BioTek). Luminescence readings were initiated after 3 s of mild plate shaking and performed at 2 min intervals for 20-30 min with integration times of 0.5 s, and the c ells were maintained throughout the measurements at 37 °C. […]

T1 sequence (Q92913 1-192 isoform Q92913-2, stated change not applied): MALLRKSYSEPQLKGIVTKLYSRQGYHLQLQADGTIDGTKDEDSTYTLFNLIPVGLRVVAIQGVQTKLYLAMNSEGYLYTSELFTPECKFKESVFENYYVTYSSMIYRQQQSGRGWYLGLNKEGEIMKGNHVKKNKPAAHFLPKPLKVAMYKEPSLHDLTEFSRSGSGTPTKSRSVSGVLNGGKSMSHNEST
T1 sequence (Q15858 1791-1988 M1830A): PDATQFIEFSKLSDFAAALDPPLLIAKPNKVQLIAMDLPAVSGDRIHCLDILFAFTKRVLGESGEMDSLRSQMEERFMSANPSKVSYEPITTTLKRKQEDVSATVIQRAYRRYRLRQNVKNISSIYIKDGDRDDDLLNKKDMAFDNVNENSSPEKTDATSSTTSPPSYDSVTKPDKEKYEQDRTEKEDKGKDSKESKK

SMILES	duration of rescue in AAV2-FGF13-GFP mice (C57BL/6 mice; PW164 5 μL, 0.7 mg/mL)	thermal hypersensitivity in AAV2-FGF13-GFP mice (C57BL/6 mice; bupivacaine 7 mg/mL (5 μL), Suppl Fig 15B)	thermal hypersensitivity in AAV2-FGF13-GFP mice (C57BL/6 mice; day 68, PW164 5 μL, 0.7 mg/mL)	agonist activity against the FGF13/Nav1.7M1830A complex [1]
COC(=O)[C@@H](NC(=O)[C@H](CCC(=O)OC(C)(C)C)NC(=O)[C@H](CC(C)C)NC(=O)[C@@H]1CCCN1C(=O)OCc1ccccc1)C(C)C [PW164] (Cbz-PLE(OtBu)V-OMe)	up to 2.5 hours	Complete recovery	partial rescue	–
CC(=O)N[C@@H](Cc1ccccc1)C(=O)N[C@@H](CC(C)C)C(=O)N1CCC[C@H]1C(=O)N[C@@H](CCCCN)C(=O)Nc1ccccc1 [ZL192] (Ac-FLPK-NHPh)	–	–	–	no agonist activity

From paper PMC12259270, “Sensory neuron–expressed FGF13 controls nociceptive signaling in diabetic neuropathy models” (The Journal of Clinical Investigation, 2025)
